Results on six compounds are retold here after US8133898B2, “Renin inhibitors” (Takeda Pharmaceutical Company Limited, priority 2008, dated 2012).

For one assay, the target named is Human DPP-IV (Homo sapiens, UniProt P27487). Description: in vitro enzymatic activity of inhibitors against DPP-IV. It is filed as biochemical. The following applies: AP-AFC substrate. The protocol: Solutions of test compounds in varying concentrations ([…]) were prepared in dimethyl sulfoxide (DMSO) and then diluted into assay buffer comprising: 20 mM Tris, pH 7.4; 20 mM KCl; and 0.1 mg/mL BSA. Human DPP-IV (0.1 nM final concentration) was added to the dilutions and pre-incubated for 10 minutes at ambient temperature before the reaction was initiated with A-P-7-amido-4-trifluoromethylcoumarin (AP-AFC; 10 μM final concentration). The total volume of the reaction mixture was 10-100 μL depending on assay formats used (384 or 96 well plates). The reaction was followed kinetically (excitation λ=400 nm; emission λ=505 nm) for 5-10 minutes or an end-point was measured after 10 minutes. Inhibition constants (IC50) were calculated from the enzyme progress curves using standard mathematical models.
Sequence of Human DPP-IV (P27487 whole entry): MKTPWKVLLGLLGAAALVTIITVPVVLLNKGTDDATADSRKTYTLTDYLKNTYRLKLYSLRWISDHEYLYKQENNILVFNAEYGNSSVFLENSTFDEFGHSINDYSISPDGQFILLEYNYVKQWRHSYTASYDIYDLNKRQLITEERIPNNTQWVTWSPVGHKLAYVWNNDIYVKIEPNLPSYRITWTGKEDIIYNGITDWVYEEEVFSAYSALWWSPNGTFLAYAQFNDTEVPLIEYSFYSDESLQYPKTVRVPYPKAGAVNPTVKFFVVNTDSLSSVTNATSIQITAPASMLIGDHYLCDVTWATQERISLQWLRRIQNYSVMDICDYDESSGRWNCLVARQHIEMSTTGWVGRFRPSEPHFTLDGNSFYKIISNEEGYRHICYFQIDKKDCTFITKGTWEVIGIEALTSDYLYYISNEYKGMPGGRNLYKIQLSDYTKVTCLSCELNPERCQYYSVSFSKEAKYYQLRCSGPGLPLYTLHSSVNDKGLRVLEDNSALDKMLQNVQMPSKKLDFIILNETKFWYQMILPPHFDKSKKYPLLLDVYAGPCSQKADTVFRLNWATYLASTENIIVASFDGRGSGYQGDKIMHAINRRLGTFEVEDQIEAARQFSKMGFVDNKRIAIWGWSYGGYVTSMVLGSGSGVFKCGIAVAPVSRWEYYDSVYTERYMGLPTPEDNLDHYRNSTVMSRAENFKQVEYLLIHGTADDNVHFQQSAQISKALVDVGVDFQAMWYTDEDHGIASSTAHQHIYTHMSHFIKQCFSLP

Another assay deals with T1, Recombinant human renin (Homo sapiens, UniProt P00797).
T1 construct: with trypsin, and isolate the active form (residues 67-406); made in house; host or cells: FreeStyle 293-F cells (transient expression of pcDNA3.1(+)/hREN)
T1 sequence (P00797 67-406): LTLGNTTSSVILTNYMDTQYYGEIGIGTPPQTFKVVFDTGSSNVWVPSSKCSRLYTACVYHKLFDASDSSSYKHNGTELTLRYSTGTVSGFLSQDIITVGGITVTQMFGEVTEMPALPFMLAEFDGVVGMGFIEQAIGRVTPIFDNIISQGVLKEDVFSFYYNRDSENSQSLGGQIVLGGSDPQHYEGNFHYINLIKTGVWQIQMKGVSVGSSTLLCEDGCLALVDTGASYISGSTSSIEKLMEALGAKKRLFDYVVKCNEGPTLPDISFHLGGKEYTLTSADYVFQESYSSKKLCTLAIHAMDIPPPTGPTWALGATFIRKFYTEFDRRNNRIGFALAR
Description: in vitro enzymatic activity of renin inhibitors (fluorescence). It is filed as biochemical. The following applies: fluorogenic peptide substrate. An excerpt:
Test compounds in varying concentrations may be reacted with recombinant human renin in the presence of substrate, e.g., QXL520-γ-Abu-Ile-His-Pro-Phe-His-Leu-Val-Ile-His-Thr-Lys (HiLyteFluo488)-Arg-OH (Anaspec, San Jose, Calif.). The reaction can be followed kinetically using fluorescence (excitation λ=485 nm; emission λ=538 nm). Inhibition constants (IC50) may be calculated by non-linear curve fitting of the compound concentrations and fluorescence intensities to the standard IC50 equation.
Solutions of test compounds in varying concentrations (≦2 mM final concentration) are prepared in dimethyl sulfoxide (DMSO) and then diluted into assay buffer comprising 50 mM Hepes, 1 mM EDTA, 1 mM DTT, 0.1 mg/ml BSA, 0.01% Brij35, pH 7.4. Alternatively, the assay can be performed with a high BSA concentration, wherein the buffer contains an additional 2% BSA.
Recombinant human renin (3 nM final concentration) is added to the dilutions and pre-incubated with the compounds for 10 minutes at 37° C. As described in Examples A-C above, human renin can be obtained by expressing preprorenin (residue 1-406) in mammalian cells, treating the prorenin (residues 24-406) contained in the culture supernatant with trypsin, and isolate the active form (residues 67-406). After pre-incubation, the reaction is initiated with 1 μM of substrate QXL520-γ-Abu-Ile-His-Pro-Phe-His-Leu-Val-Ile-His-Thr-Lys (HiLyteFluo488)-Arg-OH (Anaspec, San Jose, Calif.). The final DMSO in the assay is 5%. The total volume of the reaction mixture is 20 μL, which can be placed on Greiner 384-well small volume plates.
Renin activity may be determined via fluorescence (excitation λ=485 nm; emission λ=538 nm), e.g., on a Molecular Devices SPECTROmax GEMINI XPS. The fluorescence intensity is determined upon the addition of substrate and determined again after incubation at 37° C. for one hour. The fluorescence intensity of a blank (no inhibition) using vehicle alone is also determined. Renin activity is linearly proportional to the change in fluorescence observed (final—initial).
The percent inhibition of renin at a given compound concentration is defined as: 100%×[1−(Fcompound/Fblank)] where Fcompound is the observed fluorescence at a given concentration of test compound and Fblank is the observed fluorescence in the presence of vehicle alone.
The pIC50 value (negative log of the molar concentration of the compound that produces 50% inhibition) of a test compound is calculated by non-linear least squares curve fitting of the equation: Percent Inhibition=100%/(1+(10−pIC50/10 log [I])) to percent inhibition versus compound concentration. The 50% inhibitory concentration (IC50) of a test compound is calculated by raising 10 to the negative pIC50 (10-pIC50).

As a reminder, the IC50 is the concentration needed to halve the response being measured.

Consider “6-(aminomethyl)-5-(2-bromo-5-fluorophenyl)-7-(4-(ethylamino)phenylthio)-1,3-dimethylpyrido[2,3-d]pyrimidine-2,4(1H,3H)-dione [Compound 69]”, for which the results for the half-inhibitory concentration (IC50) against Human DPP-IV and at Recombinant human renin were below 1 µM and 10 to 100 µM, respectively.
In the same order, the values of `COc1ccc(F)cc1-c1c(CN)c(NCCCc2ccccc2)nc2c1c(=O)n(C)c(=O)n2C` [Compound 75, 6-(aminomethyl)-5-(5-fluoro-2-methoxyphenyl)-1,3-dimethyl-7-(3-phenylpropylamino)pyrido[2,3-d]pyrimidine-2,4(1H,3H)-dione] are below 1 µM and 1 to 10 µM.
In the same order, the values of `Cn1c(=O)c2c(-c3cccc(O)c3)c(CN)c(NCc3ccc4ccccc4c3)nc2n(C)c1=O` [Compound 80, 6-(aminomethyl)-5-(3-hydroxyphenyl)-1,3-dimethyl-7-(naphthalen-2-ylmethylamino)pyrido[2,3-d]pyrimidine-2,4(1H,3H)-dione] are 10 to 100 µM and 1 to 10 µM.
Consider `CC(C)COc1ccccc1-c1c(CN)c(NCc2ccc3ccccc3c2)nc2c1c(=O)n(C)c(=O)n2C` [Compound 77, 6-(aminomethyl)-5-(2-isobutoxyphenyl)-1,3-dimethyl-7-(naphthalen-2-ylmethylamino)pyrido[2,3-d]pyrimidine-2,4(1H,3H)-dione], for which the IC50 on Human DPP-IV was above 100 µM; on Recombinant human renin it was 1 to 10 µM.
As to `COc1ccc(F)cc1-c1c(CN)c(NCc2ccc(-n3cccn3)cc2)nc2c1c(=O)n(C)c(=O)n2C` [Compound 72, 7-(4-(1H-pyrazol-1-yl)benzylamino)-6-(aminomethyl)-5-(5-fluoro-2-methoxyphenyl)-1,3-dimethylpyrido[2,3-d]pyrimidine-2,4(1H,3H)-dione], the figures for the IC50 against Human DPP-IV and at Recombinant human renin were below 1 µM and 1 to 10 µM, respectively.
On to `Cn1c(=O)c2c(-c3cccc(OCc4cnc(Cl)s4)c3)c(CN)c(NCc3ccc4ccccc4c3)nc2n(C)c1=O` [Compound 89, 6-(Aminomethyl)-5-(3-((2-chlorothiazol-5-yl)methoxy)phenyl)-1,3-dimethyl-7-(naphthalen-2-ylmethylamino)pyrido[2,3-d]pyrimidine-2,4(1H,3H)-dione], for which the IC50 at Human DPP-IV fell in the range of 10 to 100 µM; on Recombinant human renin, 1 to 10 µM.
